Measurements reported in patent publication US20220062319A1, “COMBINATION IN THE TREATMENT OF NONTUBERCULOUS MYCOBACTERIAL DISEASES” (priority 2019, published 2022).
Values after ≈ are worked out from the molar mass of the structure shown. Where two headings read alike, the source gives them in different places.

Experiments:
[1] = system: M. smegmatis; assay: Bedaquiline MIC, M. smegmatis; assay type: cell-based
[2] = system: M. marinum; assay: Bedaquiline MIC, M. marinum; assay type: cell-based; details: Mycobacterium marinum, n=1, read-out: MIC Median
[3] = system: Mycobacterium marinum; assay: REMA MIC and MBC, M. marinum; assay type: cell-based
[4] = in vivo; cited from earlier work
[5] = system: M. kansasii; assay: Bedaquiline MIC, M. kansasii; assay type: cell-based; details: Mycobacterium kansasii, n=1, read-out: MIC Median
[6] = system: M. avium/M. intracellulare (MAC); assay: Bedaquiline MIC, MAC; assay type: cell-based
[7] = system: NTM clinical isolates (slow grower mycobacteria); assay: MBC determination, NTM clinical isolates overall; assay type: cell-based; details: MBC = lowest concentration killing 100% of the bacteria
Experimental: The MBC test allows determination of the minimum concentration of an agent necessary to achieve a bactericidal effect. The MBC was determined once the MIC was determined previously. To perform the MBC, the dilution representing the MIC and at least two of the more concentrated test product dilutions were plated and enumerated to determine viable CFU/ml. […] NTM clinical isolates used for this study were isolated from patients. In total, there were 18 isolates (in addition to the control strain): mycobacterium avium (x4 isolates), mycobacterium intracellulare (x4), mycobacterium chimaera (x3), mycobacterium kansasii (x2), mycobacterium ulcerans (x2), mycobacterium simiae (x2) and mycobacterium marinum (x1). […] MBC was considered the lowest concentration at which the bedaquiline kills 100% of the bacteria.

[8] = system: Mycobacterium chimaera; assay: REMA MIC and MBC, M. chimaera; assay type: cell-based; details: Mycobacterium intracellulare, M. chimaera clinical isolates (×3), one line per isolate; for MIC: REMA
[9] = system: Mycobacterium kansasii; assay: REMA MIC and MBC, M. kansasii; assay type: cell-based
[10] = system: M. ulcerans; assay: Bedaquiline MIC, M. ulcerans; assay type: cell-based; details: Mycobacterium ulcerans
[11] = system: M. abscessus; assay: Bedaquiline MIC, M. abscessus; assay type: cell-based; details: Mycobacteroides abscessus
[12] = system: Mycobacterium simiae; assay: REMA MIC and MBC, M. simiae; assay type: cell-based; details: M. simiae clinical isolates (×2), one line per isolate; for MIC: REMA
[13] = system: Mycobacterium intracellulare; assay: REMA MIC and MBC, M. intracellulare; assay type: cell-based; details: M. intracellulare clinical isolates (×4), one line per isolate; for MIC: REMA
[14] = system: Mycobacterium xenopi; assay: REMA MIC, control strain; assay type: cell-based; details: 168 h, control strain M. xenopi (×1), 7H9, 7 days
[15] = system: Mycobacterium avium; assay: REMA MIC and MBC, M. avium; assay type: cell-based; details: M. avium clinical isolates (×4), one line per isolate; for MIC: REMA
[16] = system: M. fortuitum; assay: Bedaquiline MIC, M. fortuitum; assay type: cell-based
[17] = system: other mycobacterial species; assay: organism not typed; assay type: cell-based
[18] = system: M. bovis; assay: microbe, parasite or virus in culture; assay type: cell-based; details: Mycobacterium tuberculosis variant bovis, read-out: MIC Median

Question: With `COc1nc2ccc(Br)cc2cc1[C@@H](c1ccccc1)[C@@](O)(CCN(C)C)c1cccc2ccccc12` [Bedaquiline, (alpha S, beta R)-6-bromo-alpha-[2-(dimethylamino)ethyl]-2-methoxy-alpha-1-naphthalenyl-beta-phenyl-3-quinolineethanol] as the compound, how does the MIC ([1]; Mycolicibacterium smegmatis, n=7, read-out: MIC Median) read?
Answer: 0.007 µg/mL (≈ 0.0126 µM)

Question: And the MIC range ([1]; n=7)?
Answer: 0.003 to 0.10 µg/mL

Question: What about the MIC [2] of the same compound?
Answer: 0.003 µg/mL (≈ 0.0054 µM)

Question: And the MIC [3]?
Answer: 0.015 µg/mL (≈ 0.027 µM)

Question: And the MBC ([3]; M. marinum clinical isolate (×1))?
Answer: 2 µg/mL (≈ 3.6 µM)

Question: And the “improvement of bioavailability with food” value [4]?
Answer: approximately 2 fold

Question: What about the MIC [5] of the same compound?
Answer: 0.003 µg/mL (≈ 0.0054 µM)

Question: What about the MIC ([6]; Mycobacterium avium, n=7, read-out: MIC Median) of the same compound?
Answer: 0.01 µg/mL (≈ 0.018 µM)

Question: And the MIC range ([6]; n=7)?
Answer: 0.007 to 0.010 µg/mL

Question: And the bactericidal activity [7]?
Answer: bactericidal activity for the majority of clinical isolates tested

Question: What about the MBC [8] of the same compound?
Answer: 1 µg/mL (≈ 1.8 µM)

Question: And the MIC [8]?
Answer: 0.015 µg/mL (≈ 0.027 µM)

Question: What about the MIC ([8]; read-out: MIC) of the same compound?
Answer: 0.007 µg/mL (≈ 0.0126 µM)

Question: What about the MIC [9] of the same compound?
Answer: 0.015 µg/mL (≈ 0.027 µM)

Question: What about the MIC ([10]; 1 isolate of M. ulcerans, read-out: MIC) of the same compound?
Answer: 0.5 µg/mL (≈ 0.9 µM)

Question: And the MIC ([10]; M. ulcerans, n=1, read-out: MIC Median)?
Answer: 0.5 µg/mL (≈ 0.9 µM)

Question: What about the MIC ([11]; 1 isolate of M. abscessus, read-out: MIC) of the same compound?
Answer: 0.25 µg/mL (≈ 0.45 µM)

Question: What about the MIC ([11]; M. abscessus, n=1, read-out: MIC Median) of the same compound?
Answer: 0.25 µg/mL (≈ 0.45 µM)

Question: And the MBC [12]?
Answer: 1 µg/mL (≈ 1.8 µM)

Question: And the MIC [12]?
Answer: 0.015 µg/mL (≈ 0.027 µM)

Question: What about the MIC ([12]; read-out: MIC) of the same compound?
Answer: 0.03 µg/mL (≈ 0.054 µM)

Question: And the MBC [13]?
Answer: 2 µg/mL (≈ 3.6 µM)

Question: What about the MIC [13] of the same compound?
Answer: 0.015 µg/mL (≈ 0.027 µM)

Question: And the MIC ([13]; read-out: MIC)?
Answer: 0.007 µg/mL (≈ 0.0126 µM)

Question: And the MIC [14]?
Answer: > 2 µg/mL

Question: And the MBC [15]?
Answer: 1 µg/mL (≈ 1.8 µM)

Question: What about the MIC [15] of the same compound?
Answer: 0.015 µg/mL (≈ 0.027 µM)

Question: What about the MIC ([15]; read-out: MIC) of the same compound?
Answer: 0.007 µg/mL (≈ 0.0126 µM)

Question: What about the MIC ([16]; Mycolicibacterium fortuitum, n=5, read-out: MIC Median) of the same compound?
Answer: 0.01 µg/mL (≈ 0.018 µM)

Question: What about the MIC range ([16]; n=5) of the same compound?
Answer: 0.007 to 0.010 µg/mL

Question: And the MIC [17]?
Answer: < 0.1 µg/mL

Question: What about the MIC [18] of the same compound?
Answer: 0.003 µg/mL (≈ 0.0054 µM)
